This passage reports logP and chromatographic logP results from US8946234B2, “Halogen-substituted compounds” (Bayer CropScience AG, priority 2008, dated 2015).

The structures appear in SMILES notation.

A short description of one data set: physchem. The format is physicochemical.
Conditions: not given
An outline of the steps:
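Reversed-phase C18 HPLC (50×4.6 mm, 1.8 micron), 55 °C, 2.0 ml/min, acetonitrile/water with formic acid. Linear gradient 10% to 95% acetonitrile over 4.25 min, then 95% for 1.25 min. logP derived from retention per EEC Directive 79/831 Annex V.A8; MS detection.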
For the compound `Cn1nc(C(F)(F)C(F)(F)C(F)(F)C(F)(F)F)c(I)c1C(=O)Nc1ccc(Cl)c(C(=O)NC2CCC2)c1` [Ik-268], the logP is given as 4.16^a). In the case of `Cn1nc(C(F)(F)C(F)(F)C(F)(F)C(F)(F)F)c(I)c1C(=O)Nc1ccc(Cl)c(C(=O)NCC=CCl)c1` [Ik-269], the logP is reported as 4.27^a).

Take `Cn1nc(C(F)(F)C(F)(F)F)c(C(F)(F)F)c1C(=O)Nc1cc(C(=O)NC2CC2F)c(Cl)cn1` (stereo not shown) [Ik-314]: the logP is 3.14^a). As to `C=CCNC(=O)c1cc(NC(=O)c2c(C(F)(F)F)c(C(F)(F)C(F)(F)F)nn2C)ncc1Br` [Ik-315], the logP is 3.42^a). Consider `C=CCNC(=O)c1cc(NC(=O)c2c(C(F)(F)F)c(C(F)(F)C(F)(F)F)nn2C)ncc1Cl` [Ik-316], for which the logP is listed as 3.38^a). On the same count and under the same terms, under `Cn1nc(C(F)(F)C(F)(F)F)c(C(F)(F)F)c1C(=O)Nc1cc(C(=O)NCC(F)(F)F)c(Cl)cn1` [Ik-317] stands 3.61^a). On the same count and under the same terms, the figure for `Cn1nc(C(F)(F)C(F)(F)F)c(C(F)(F)F)c1C(=O)Nc1cc(C(=O)NC2CC2)c(Cl)cn1` [Ik-318] is 3.24^a); for `Cc1nc(C(F)(F)F)ccc1C(=O)Nc1ccc(Cl)c(C(=O)NC2CC2)c1` [Ir-2] it is 2.27^a); for `CC(C)NC(=O)c1cc(NC(=O)c2ccc(C(F)(F)F)nc2Cl)ccc1Cl` [Ir-3] it is 2.68^a).

Consider `Cc1nc(C(F)(F)F)ccc1C(=O)Nc1ccc(Cl)c(C(=O)NC(C)C)c1` [Ir-4], for which the logP was 2.53^a). Same read-out and setting: the figure for `CNC(=O)c1cc(NC(=O)c2ccc(C(F)(F)F)nc2C)ccc1Cl` [Ir-5] is 1.97^a); for `CNC(=O)c1cc(NC(=O)c2ccc(C(F)(F)F)nc2Cl)ccc1Cl` [Ir-6] it is 2.16^a); for `C=CCNC(=O)c1cc(NC(=O)c2ccc(C(F)(F)F)nc2Cl)c(C)cc1Cl` [Ir-7] it is 2.68^a). `C=CCNC(=O)c1cc(NC(=O)c2ccc(C(F)(F)F)nc2C)c(C)cc1Cl` [Ir-8]: the logP was 2.45^a).

Turning to `O=C(NCC(F)(F)F)c1cc(NC(=O)c2ccc(C(F)(F)F)nc2Cl)ccc1Cl` [Ir-9], the logP is 2.82^a). With `O=C(NCC=CCl)c1cc(NC(=O)c2ccc(C(F)(F)F)nc2Cl)ccc1Cl` [Ir-10], the logP is listed as 2.86^a). Same read-out and setting: under `Cc1nc(C(F)(F)F)ccc1C(=O)Nc1ccc(Cl)c(C(=O)NCC(F)(F)F)c1` [Ir-11] stands 2.67^a).

The data set is the same for the next values; noted with them: HPLC phase inversion (reversed-phase) C18 column, HPLC method a), eluent acetonitrile/water with formic acid; read-out: logP.
Turning to `COC(=O)c1cc(NC(=O)c2c(C(F)(F)F)c(C(F)(F)C(F)(F)F)nn2C)ccc1Cl` [Methyl 2-chloro-5-({[1-methyl-3-(pentafluoroethyl)-4-(trifluoromethyl)-1H-pyrazol-5-yl]carbonyl}amino)benzoate], the chromatographic logP came to 4.05. The same measure, in the same setting: under `COC(=O)c1[nH]nc(C(F)(F)C(F)(F)F)c1C(F)(F)F` [Methyl 3-(pentafluoroethyl)-4-(trifluoromethyl)-1H-pyrazole-5-carboxylate] stands 3.02; under `COC(=O)c1cc(N(C(=O)c2c(C(F)(F)F)c(C(F)(F)C(F)(F)F)nn2C)C(=O)c2c(C(F)(F)F)c(C(F)(F)C(F)(F)F)nn2C)ccc1Cl` [Methyl 5-(bis{[1-methyl-3-(pentafluoroethyl)-4-(trifluoromethyl)-1H-pyrazol-5-yl]carbonyl}amino)-2-chlorobenzoate], 5.85; under `Cn1nc(C(O)C2CC2)c(C(F)(F)F)c1C(=O)Nc1ccc(Cl)c(C(=O)NC2CC2)c1` (stereo not shown) [N-[4-chloro-3-(cyclopropylcarbamoyl)phenyl]-3-[cyclopropyl(hydroxy)methyl]-1-methyl-4-(trifluoromethyl)-1H-pyrazole-5-carboxamide], 2. For `CCOC(=O)c1cc(NC(=O)c2nc(C)nc(C(F)(F)C(F)(F)F)c2C(F)(F)F)ccc1Cl` [ethyl 2-chloro-5-({[2-methyl-6-(pentafluoroethyl)-5-(trifluoromethyl)pyrimidin-4-yl]-carbonyl}amino)benzoate], the chromatographic logP was determined as 4.55. Regarding `COC(=O)c1c(Cl)cnc(N)c1Cl` [methyl 2-amino-3,5-dichloroisonicotinate], the chromatographic logP was 1.75. Same read-out and setting: the figure for `COC(=O)c1cc(N)ncc1Cl` [methyl 2-amino-5-chloroisonicotinate] is 1.3; for `COC(=O)c1cc(NC(=O)c2c(C(F)(F)F)c(C(F)(F)C(F)(F)F)nn2C)cnc1Cl` [methyl 2-chloro-5-({[1-methyl-3-(pentafluoroethyl)-4-(trifluoromethyl)-1H-pyrazol-5-yl]carbonyl}amino)nicotinate] it is 3.7; for `COC(=O)c1cc(NC(=O)c2c(C(F)(F)F)c(C(F)(F)C(F)(F)F)nn2C)ncc1Br` [methyl 5-bromo-2-({[1-methyl-3-(pentafluoroethyl)-4-(trifluoromethyl)-1H-pyrazol-5-yl]carbonyl}amino)-isonicotinate] it is 4.04.

The nature of a further data set: logP by HPLC on a C18 phase inversion column, EEC Directive 79/831 Annex V.A8, method b) (HP1100, 5-95% acetonitrile in 1.70 min). The format is physicochemical. The conditions noted are these: HPLC method b). As for the experimental part: ^b) Note regarding the determination of the log P values and mass detection: The log P values given were determined in accordance with EEC Directive 79/831 Annex V.A8 by HPLC (High Performance Liquid Chromatography) on a phase inversion column (C18). HP1100; 50*4.6 Zorbax Eclipse Plus C18 1.8 micron; eluent A: acetonitrile (0.1% formic acid); eluent B: water (0.08% formic acid); linear gradient from 5% acetonitrile to 95% acetonitrile in 1.70 min, then 95% acetonitrile for a further 1.00 min; oven temperature 55° C.; flow: 2.0 ml/min. The mass detection is carried out via the mass detector Micromass ZQ2000 from Waters.
As to `Cn1nc(C(F)(F)C(F)(F)F)c(C(F)(F)F)c1C(=O)Nc1ccc(Cl)c(C(=O)NC2CC2(F)F)c1` (stereo not shown) [Ik-6], the logP is 3.33^b). On the same count and under the same terms, the figure for `Cn1nc(C(F)(F)C(F)(F)F)c(C(F)(F)F)c1C(=O)Nc1ccc(Cl)c(C(=O)NCc2ncn[nH]2)c1` [Ik-29] is 2.31^b); for `CCCNC(=O)c1cc(NC(=O)c2c(C(F)(F)F)c(C(F)(F)C(F)(F)F)nn2C)ccc1Cl` [Ik-30] it is 3.23^b); for `CN(C(=O)c1cc(NC(=O)c2c(C(F)(F)F)c(C(F)(F)C(F)(F)F)nn2C)ccc1Cl)C1CC1` [Ik-31] it is 3.51^b). For `Cn1nc(C(F)(F)C(F)(F)F)c(C(F)(F)F)c1C(=O)Nc1ccc(Cl)c(C(=O)NC2COC2)c1` [Ik-32], the logP is 2.76^b). On to `CC(O)CNC(=O)c1cc(NC(=O)c2c(C(F)(F)F)c(C(F)(F)C(F)(F)F)nn2C)ccc1Cl` (stereo not shown) [Ik-33], for which the logP is listed as 2.65^b). Regarding `COC(=O)CNC(=O)c1cc(NC(=O)c2c(C(F)(F)F)c(C(F)(F)C(F)(F)F)nn2C)ccc1Cl` [Ik-34], the logP was 3.04^b). For the compound `CC(C)N(C)C(=O)c1cc(NC(=O)c2c(C(F)(F)F)c(C(F)(F)C(F)(F)F)nn2C)ccc1Cl` [Ik-35], the logP is 3.73^b).

As for `Cn1nc(C(F)(F)C(F)(F)F)c(C(F)(F)F)c1C(=O)Nc1ccc(Cl)c(C(=O)NCc2c(F)cccc2F)c1` [Ik-37], the logP was 3.73^b). As for `CC(NC(=O)c1cc(NC(=O)c2c(C(F)(F)F)c(C(F)(F)C(F)(F)F)nn2C)ccc1Cl)c1ccccc1` (stereo not shown) [Ik-38], the logP was 3.89^b). `Cn1nc(C(F)(F)C(F)(F)F)c(C(F)(F)F)c1C(=O)Nc1ccc(Cl)c(C(=O)NC2CCCC2)c1` [Ik-39]: the logP is 3.78^b). The same measure, in the same setting: under `Cn1nc(C(F)(F)C(F)(F)F)c(C(F)(F)F)c1C(=O)Nc1ccc(Cl)c(C(=O)NCCc2ccc(Cl)cc2)c1` [Ik-40] stands 4.23^b); under `Cn1nc(C(F)(F)C(F)(F)F)c(C(F)(F)F)c1C(=O)Nc1ccc(Cl)c(C(=O)NCC(C)(C)CF)c1` [Ik-42], 3.68^b); under `Cn1nc(C(F)(F)C(F)(F)F)c(C(F)(F)F)c1C(=O)Nc1ccc(Cl)c(C(=O)NCc2ccon2)c1` [Ik-43], 3.02^b). In the case of `Cn1nc(C(F)(F)C(F)(F)F)c(C(F)(F)F)c1C(=O)Nc1ccc(Cl)c(C(=O)NC(C)(C)C=C(Cl)Cl)c1` [Ik-44], the logP was 4.28^b).

For the compound `Cn1nc(C(F)(F)C(F)(F)F)c(C(F)(F)F)c1C(=O)Nc1ccc(Cl)c(C(=O)NCC2(C)COC2)c1` [Ik-45], the logP is listed as 2.98^b). Still for that read-out and setting: under `Cn1nc(C(F)(F)C(F)(F)F)c(C(F)(F)F)c1C(=O)Nc1ccc(Cl)c(C(=O)NCC2CC2(C)C)c1` (stereo not shown) [Ik-46] stands 4.11^b); under `Cn1nc(C(F)(F)C(F)(F)F)c(C(F)(F)F)c1C(=O)Nc1ccc(Cl)c(C(=O)NC2CC2c2ccccc2)c1` (stereo not shown) [Ik-47], 4.00^b). The same measure, in the same setting: under `Cn1nc(C(F)(F)C(F)(F)F)c(C(F)(F)F)c1C(=O)Nc1ccc(Cl)c(C(=O)NCC#N)c1` [Ik-48] stands 2.93^b). Consider `Cn1nc(C(F)(F)C(F)(F)F)c(C(F)(F)F)c1C(=O)Nc1ccc(Cl)c(C(=O)NCc2cccc(F)c2)c1` [Ik-49], for which the logP is on record as 3.78^b). Still for that read-out and setting: the figure for `C=C(C)CNC(=O)c1cc(NC(=O)c2c(C(F)(F)F)c(C(F)(F)C(F)(F)F)nn2C)ccc1Cl` [Ik-50] is 3.53^b); for `Cn1nc(C(F)(F)C(F)(F)F)c(C(F)(F)F)c1C(=O)Nc1ccc(Cl)c(C(=O)NCc2ccccc2F)c1` [Ik-52] it is 3.73^b); for `CCOCCNC(=O)c1cc(NC(=O)c2c(C(F)(F)F)c(C(F)(F)C(F)(F)F)nn2C)ccc1Cl` [Ik-53] it is 3.28^b). On to `Cn1nc(C(F)(F)C(F)(F)F)c(C(F)(F)F)c1C(=O)Nc1ccc(Cl)c(C(=O)NCc2cc(F)ccc2F)c1` [Ik-54], for which the logP is on record as 3.84^b). For the compound `Cn1nc(C(F)(F)C(F)(F)F)c(C(F)(F)F)c1C(=O)Nc1ccc(Cl)c(C(=O)NC(C2CC2)C2CC2)c1` [Ik-61], the logP was 4.00^b). For `Cc1c(C(F)(F)C(F)(F)F)nn(C)c1C(=O)Nc1ccc(Cl)c(C(=O)NCc2ccccc2)c1` [Ik-271], the logP is listed as 3.42^b).

Consider `CCc1c(C(F)(F)C(F)(F)F)nn(C)c1C(=O)Nc1ccc(Cl)c(C(=O)NCc2ccccc2)c1` [Ik-272], for which the logP is listed as 3.68^b). With `Cn1nc(C(F)(F)C(F)(F)F)c(C(F)(F)F)c1C(=O)Nc1ccc(Cl)c(C(=O)NCc2nc(C(F)(F)F)cs2)c1` [Ik-273], the logP is reported as 3.75^b). For `Cn1nc(C(F)(F)C(F)(F)F)c(C(F)(F)F)c1C(=O)Nc1ccc(Cl)c(C(=O)NC(C)(C)C#N)c1` [Ik-274], the logP is listed as 3.37^b).
